# Source: ChEMBL document CHEMBL1275440, “In vitro activity of telavancin against resistant gram-positive bacteria” (2008)
# Activity calls are given as the source filed them. The calls are words filed in the database; no cut-off is given here.
# Key:
# Format in all cases: functional
# [1] = test system: Staphylococcus epidermidis; test: Antibacterial activity against methicillin resistant Staphylococcus epidermidis ATCC 35984 assessed as bacterial count at 16 ug/ml after 4 hrs by time-kill assay
# [2] = test system: Enterococcus faecium; test: Antibacterial activity against vancomycin resistant Enterococcus faecium VanA clinical isolate by broth microdilution method
# [3] = test system: Staphylococcus epidermidis; test: Antibacterial activity against methicillin resistant Staphylococcus epidermidis ATCC 35984 assessed as bacterial count at 8 ug/ml after 2 hrs by time-kill assay
# [4] = test system: Streptococcus intermedius; test: Antibacterial activity against Streptococcus intermedius clinical isolate by broth microdilution method
# [5] = test system: Streptococcus agalactiae; test: Antibacterial activity against Streptococcus agalactiae MED 2038 assessed as bacterial count at […] after 8 hrs by time-kill assay
# [6] = test system: Staphylococcus epidermidis; test: Antibacterial activity against methicillin resistant Staphylococcus epidermidis ATCC 35984 assessed as bacterial count at 2 ug/ml after 24 hrs by time-kill assay
# [7] = test system: Staphylococcus aureus; test: Antibacterial activity against methicillin resistant Staphylococcus aureus MED 2028 osteomyelitis isolate assessed as bacterial count at 4 ug/ml after 8 hrs by time-kill assay
# [8] = test system: Streptococcus pneumoniae; test: Antibacterial activity against multidrug resistant Streptococcus pneumoniae MED 1090 assessed as bacterial count at 0.06 ug/ml after 4 hrs by time-kill assay
# [9] = test system: Streptococcus pneumoniae; test: Antibacterial activity against multidrug resistant Streptococcus pneumoniae MED 1090 assessed as bacterial count at 2 ug/ml after 8 hrs by time-kill assay
# [10] = test system: Streptococcus pneumoniae; test: Antibacterial activity against multidrug resistant Streptococcus pneumoniae MED 1090 assessed as bacterial count at […] after 4 hrs by time-kill assay
# [11] = test system: Staphylococcus aureus; test: Antibacterial activity against methicillin resistant Staphylococcus aureus MED 1805 bloodstream isolate assessed as bacterial count at 1 ug/ml after 4 hrs by time-kill assay
# [12] = test system: Enterococcus faecium; test: Antibacterial activity against vancomycin resistant Enterococcus faecium VanB clinical isolate by broth microdilution method
# [13] = test system: Enterococcus faecalis; test: Antibacterial activity against Enterococcus faecalis ATCC 51575 assessed as bacterial count at 2 ug/ml after 24 hrs by time-kill assay
# [14] = test system: Staphylococcus aureus; test: Antibacterial activity against methicillin resistant Staphylococcus aureus MED 2028 osteomyelitis isolate assessed as bacterial count at 1 ug/ml after 2 hrs by time-kill assay
# [15] = test system: Staphylococcus aureus; test: Antibacterial activity against methicillin resistant Staphylococcus aureus MED 2028 osteomyelitis isolate assessed as bacterial count at 8 ug/ml after 24 hrs by time-kill assay
# [16] = test system: Streptococcus pneumoniae; test: Antibacterial activity against multidrug resistant Streptococcus pneumoniae MED 1090 by broth microdilution method
# [17] = test system: Enterococcus faecalis; test: Antibacterial activity against Enterococcus faecalis ATCC 51575 assessed as bacterial count at 4 ug/ml after 24 hrs by time-kill assay
# [18] = test system: Staphylococcus aureus; test: Antibacterial activity against methicillin resistant Staphylococcus aureus MED 2028 osteomyelitis isolate assessed as bacterial count at 2 ug/ml after 4 hrs by time-kill assay
# [19] = test system: Streptococcus pyogenes; test: Antibacterial activity against Streptococcus pyogenes MED 2040 assessed as bacterial count at […] after 4 hrs by time-kill assay
# [20] = test system: Enterococcus faecalis; test: Antibacterial activity against Enterococcus faecalis ATCC 51575 assessed as bacterial count at 8 ug/ml after 24 hrs by time-kill assay
# [21] = test system: Staphylococcus aureus; test: Antibacterial activity against methicillin resistant Staphylococcus aureus MED 1805 bloodstream isolate assessed as bacterial count at 1 ug/ml after 2 hrs by time-kill assay
# [22] = test system: Staphylococcus epidermidis; test: Antibacterial activity against methicillin resistant Staphylococcus epidermidis ATCC 35984 assessed as bacterial count at 4 ug/ml after 4 hrs by time-kill assay
# [23] = test system: Staphylococcus aureus; test: Antibacterial activity against methicillin resistant Staphylococcus aureus MED 2028 osteomyelitis isolate assessed as bacterial count at 1 ug/ml after 24 hrs by time-kill assay
# [24] = test system: Staphylococcus aureus; test: Antibacterial activity against methicillin resistant Staphylococcus aureus MED 2028 osteomyelitis isolate by broth microdilution method
# [25] = test system: Streptococcus agalactiae; test: Antibacterial activity against Streptococcus agalactiae MED 2038 assessed as bacterial count at […] after 4 hrs by time-kill assay
# [26] = test system: Staphylococcus aureus; test: Antibacterial activity against methicillin resistant Staphylococcus aureus MED 2028 osteomyelitis isolate assessed as bacterial count at 4 ug/ml after 24 hrs by time-kill assay
# [27] = test system: Streptococcus agalactiae; test: Antibacterial activity against Streptococcus agalactiae MED 2038 assessed as bacterial count at 8 ug/ml after 4 hrs by time-kill assay
# [28] = test system: Staphylococcus epidermidis; test: Antibacterial activity against methicillin resistant Staphylococcus epidermidis ATCC 35984 assessed as bacterial count at 4 ug/ml after 2 hrs by time-kill assay
# [29] = test system: Streptococcus pneumoniae; test: Antibacterial activity against multidrug resistant Streptococcus pneumoniae MED 1090 assessed as bacterial count at 0.03 ug/ml after 8 hrs by time-kill assay
# [30] = test system: Enterococcus faecalis; test: Antibacterial activity against Enterococcus faecalis ATCC 51575 by broth microdilution method
# [31] = test system: Streptococcus pyogenes; test: Antibacterial activity against Streptococcus pyogenes MED 2040 assessed as bacterial count at 0.5 ug/ml after 8 hrs by time-kill assay
# [32] = test system: Staphylococcus aureus; test: Antibacterial activity against methicillin resistant Staphylococcus aureus clinical isolate by broth microdilution method
# [33] = test system: Streptococcus pyogenes; test: Antibacterial activity against Streptococcus pyogenes MED 2040 assessed as bacterial count at […] after 8 hrs by time-kill assay
# [34] = test system: Streptococcus pneumoniae; test: Antibacterial activity against multidrug resistant Streptococcus pneumoniae MED 1090 assessed as bacterial count at […] after 8 hrs by time-kill assay
# [35] = test system: Staphylococcus aureus; test: Antibacterial activity against methicillin resistant Staphylococcus aureus MED 2028 osteomyelitis isolate assessed as bacterial count at 16 ug/ml after 4 hrs by time-kill assay
# [36] = test system: Staphylococcus aureus; test: Antibacterial activity against methicillin resistant Staphylococcus aureus MED 2028 osteomyelitis isolate assessed as bacterial count at 2 ug/ml after 2 hrs by time-kill assay
# [37] = test system: Enterococcus faecalis; test: Antibacterial activity against Enterococcus faecalis ATCC 51575 assessed as bacterial count at 4 ug/ml after 8 hrs by time-kill assay
# [38] = test system: Staphylococcus aureus; test: Antibacterial activity against methicillin resistant Staphylococcus aureus MED 2028 osteomyelitis isolate assessed as bacterial count at 8 ug/ml after 4 hrs by time-kill assay
# [39] = test system: Enterococcus faecalis; test: Antibacterial activity against Enterococcus faecalis ATCC 51575 assessed as bacterial count at 4 ug/ml after 4 hrs by time-kill assay
# [40] = test system: Staphylococcus epidermidis; test: Antibacterial activity against methicillin resistant Staphylococcus epidermidis ATCC 35984 assessed as bacterial count at 2 ug/ml after 4 hrs by time-kill assay
# [41] = test system: Streptococcus agalactiae; test: Antibacterial activity against Streptococcus agalactiae MED 2038 assessed as bacterial count at 2 ug/ml after 4 hrs by time-kill assay
# [42] = test system: Streptococcus agalactiae; test: Antibacterial activity against Streptococcus agalactiae MED 2038 assessed as bacterial count at […] after 24 hrs by time-kill assay
# [43] = test system: Streptococcus oralis; test: Antibacterial activity against Streptococcus oralis clinical isolate by broth microdilution method
structure (smiles),measurement,setting,value
CCCCCCCCCCNCCN[C@@]1(C)C[C@H](O[C@H]2[C@H](Oc3c4cc5cc3Oc3ccc(cc3Cl)[C@@H](O)[C@@H](NC(=O)[C@@H](CC(C)C)NC)C(=O)N[C@@H](CC(N)=O)C(=O)N[C@H]5C(=O)N[C@H]3C(=O)N[C@H](C(=O)N[C@H](C(=O)O)c5cc(O)c(CNCP(=O)(O)O)c(O)c5-c5cc3ccc5O)[C@H](O)c3ccc(c(Cl)c3)O4)O[C@H](CO)[C@@H](O)[C@@H]2O)O[C@@H](C)[C@H]1O [TELAVANCIN],log10CFU/ml,[1],3.2
same,MIC50,[2],8 µg/mL
same,MIC90,[2],16 µg/mL
same,log10CFU/ml,[3],0.5
same,MIC,[4],0.015 µg/mL
same,MIC50,[4],inactive
same,MIC90,[4],inactive
same,log10CFU/ml,[5],2.3
same,log10CFU/ml,[6],3.1
same,log10CFU/ml,[7],3.4
same,log10CFU/ml,[8],2.1
same,log10CFU/ml,[9],3.4
same,log10CFU/ml,[10],1.9
same,log10CFU/ml,[11],1.8
same,MIC50,[12],0.5 µg/mL
same,MIC90,[12],2 µg/mL
same,log10CFU/ml,[13],0.8
same,log10CFU/ml,[14],0.7
same,log10CFU/ml,[15],3.4
same,MIC,[16],0.015 µg/mL
same,log10CFU/ml,[17],1.2
same,log10CFU/ml,[18],1.6
same,log10CFU/ml,[19],1.8
same,log10CFU/ml,[20],1
same,log10CFU/ml,[21],0.9
same,log10CFU/ml,[22],1.8
same,log10CFU/ml,[23],2.1
same,MIC,[24],0.5 µg/mL
same,log10CFU/ml,[25],0.8
same,log10CFU/ml,[26],3.4
same,log10CFU/ml,[27],0.9
same,log10CFU/ml,[28],1
same,log10CFU/ml,[29],3.4
same,MIC,[30],1 µg/mL
same,log10CFU/ml,[31],2.3
same,Activity,[32],100%
same,MIC50,[32]; Staphylococcus aureus,0.25 µg/mL
same,MIC90,[32]; Staphylococcus aureus,0.5 µg/mL
same,log10CFU/ml,[33],2.5
same,log10CFU/ml,[34],3.3
same,log10CFU/ml,[35],0.8
same,log10CFU/ml,[36],0.6
same,log10CFU/ml,[37],0.7
same,log10CFU/ml,[38],2.2
same,log10CFU/ml,[39],0.5
same,log10CFU/ml,[40],0.03
same,log10CFU/ml,[41],0.8
same,log10CFU/ml,[42],3.6
same,MIC,[43],0.015 µg/mL
same,MIC50,[43],inactive
same,MIC90,[43],inactive
